Measured values: US6921775B2, “Methods for modulating brain damage” (Children's Medical Center Corporation, priority 2001, dated 2005)

Legend:
[1] = system: oligodendrocyte precursor cells; experiment: 45Ca2+ uptake in oligodendrocyte precursor cells; type: cell-based, rat; conditions: NBQX 100 μM, topiramate 30 μM, uptake after 10 minutes; for OGD-induced Ca2+ accumulation (45Ca2+ uptake): OGD for 2 hr; for kainate-evoked Ca2+ entry (45Ca2+ uptake): kainate 300 μM
Protocol: Primary oligodendrocyte precursor cells were isolated from mixed glial cultures of the forebrains of newborn Sprague-Dawley rats using a selective detachment procedure as described in detail elsewhere (McCarthy and de Vellis, 1980; Back et al., 1998), and further purified by differential adhesion (Back et al., 1998). Precursor cells were maintained in a chemically-defined medium (CDM) supplemented with recombinant human platelet derived growth factor-AA (PDGF, 10 ng/ml) and basic fibroblast growth factor (bFGF, 10 ng/ml). The CDM was Dulbecco Modified Eagle's Medium (DMEM) containing D-glucose (25 mM), L-glutamine (4 mM), sodium pyruvate (1 mM), human apo-transferrin (50 μg/ml), bovine pancreatic insulin (5 μg/ml), sodium selenium (30 nM), hydrocortisone (10 nM), D-biotin (10 nM), and bovine serum albumin (BSA, 1 mg/ml). All chemicals were from Sigma. Precursor cells were maintained in the presence of growth factors (PDGF+bFGF) by refeeding with fresh medium every 48 hr for 7 days, to promote cell proliferation and prevent differentiation (Bogler et al., 1990). Experiments were performed with cultures maintained in CDM without the supplemental growth factors. These cultures were routinely characterized by immunochemical detection of cell-specific markers as described before (Back et al., 1998). Cultures at the beginning of experiments usually consisted of approximately 90% A2B5^+ oligodendrocyte precursors and less than 5% glial fibrillary acidic protein (GFAP)-positive astrocytes. Cells were plated on poly-DL-ornithine-coated 24-well plates for cell viability assays and on coated glass coverslips for immunocytochemistry, proliferation studies, and lineage analysis. To assay Ca^2+ influx, cultures were incubated with ^45CaCl2 (8 μCi/ml) at room temperature for 10 min, then washed with Hank's balanced salts-solution (HBSS) and lysed with 1% Triton-X 100 in HBSS. Radioactivity in the whole lysate was counted by liquid scintillation. To gain further insight into the mechanisms of the protective effect of topiramate and NBQX, kainate- or OGD-evoked calcium accumulation in oligodendrocyte precursor cells was investigated. Cultures were either not treated or given NBQX (100 μM) or topiramate (30 μM), together with ^45CaCl2 (8 μCi/ml), before adding kainate (300 μM) or after exposure to OGD for 2 hr. ^45Ca^2+ uptake was measured after 10 minutes.

[2] = system: P7 rat pups; experiment: Hypoxia/ischemia (unilateral carotid ligation followed by hypoxia, 6% O2 for one hour) selective white matter injury model; type: in vivo
From the text: The methods used in this example are described in Follett et al. (2000) J. Neurosci. 20:9235-9241, incorporated by reference herein.
Because the white matter of premature infants at high risk for hypoxic/ischemic white matter injury is also populated with immature OLs (Kinney and Back, 1998), this age was chosen to deliver the hypoxic/ischemic insult. […] Injury was limited to the white matter without evidence of injury to cortical neurons. […] Ipsilateral injury included the loss of MBP expression in the OL processes extending into the cortex and decreased thickness of the periventricular white matter and external capsule in four of nine rats.
P7 rat pups underwent unilateral carotid ligation followed by hypoxia (6% O2 for one hour). Following hypoxia, littermates were treated with either topiramate (30 mg/kg, i.p., q12 h, 4 doses, n=12) or vehicle (n=12). 48 hours after hypoxia/ischemia, pups were evaluated with in situ end labeling (ISEL) for the presence of cell death in white matter. Briefly, coronal sections were labeled for the presence of single-stranded DNA fragments as a sensitive indicator of cell death. ISEL positive cells in white matter ipsilateral to the ligation in each of three coronal sections (at the level of the anterior hippocampus, mid-dorsal hippocampus, and posterior dorsal hippocampus) were counted and a mean was taken for each rat.
96 hours post-ischemia/hypoxia, pups were evaluated with ICC for loss of MBP expression ipsilateral to the ligation as compared to the contralateral side. Coronal sections were evaluated by immunocytochemistry with a monoclonal against MBP, and detected with fluorescent secondary antibody. Three sections were evaluated for each rat: the anterior hippocampus, the mid-dorsal hippocampus, and the posterior dorsal hippocampus. Lesion severity was assigned a value on a scale from 0 to 3 as follows: 0 if ipsilateral and colateral hemispheres were similar; 1 if ipsilateral loss was limited to cortical processes; 2, if loss of staining included thinning of the periventricular white matter; and 3 if white matter tracts included a full thickness loss of staining in the capsule. A mean severity score was obtained for immature and mature OL markers in each rat.
Litters of male Long Evans rat pups (Charles River Laboratories, Wilmington, Mass.) were raised with dams in a temperature-controlled environment with 12 hour light-dark cycles. Pups underwent carotid ligation and hypoxia at post-natal-day (P)7. They were recovered on a thermal blanket at 33-34° C. (baseline temperature for P7 rats) and returned to their dam for 48-96 hours prior to sacrifice. Treated pups were given intra-peritoneal (i.p.) injections of 0.1 cc solutions of topiramate, NBQX or vehicle every 12 hours for 48 hours at P7 and P8 for treatment, control and normal development studies.
Hypoxic/ischemic injury was generated in rats by unilateral carotid ligation followed by hypoxia (6% for 1 hour). […] The methods used in this example are described in Follett et al (2000) J. Neurosci. 20:9235-9241, incorporated by reference herein.
Briefly, rats were anesthetized with ether and the proximal internal carotid artery was isolated from the sympathetic chain and ligated. Animals requiring prolonged sedation due to technical issues were removed from the study. The animals were recovered one hour, then placed in a sealed chamber infused with nitrogen to a level of 6% O2, with body temperature maintained at 33-34° C. throughout. […] Pups were allowed a 1-2 hour period of recovery after hypoxia then returned to their dam. Pups were randomized into treatment and control groups by weight to insure no size variation existed between the subjects and controls to start. Following hypoxia animals in the treatment group were given i.p. injections of topirmate (10, 30 or 50 mg/kg in 0.1 cc PBS) or equivalent volume of saline repeat treatment every 12 hours for 48 hours. […]

[3] = P7 rats, topiramate 30 mg/kg i.p. q12 h 4 doses, 96 hours

| Compound | OGD-induced Ca2+ accumulation (45Ca2+ uptake) [1] | kainate-evoked Ca2+ entry (45Ca2+ uptake) [1] | protective effect at the lower dose (MBP injury) ([2]; Example 3, 10 mg/kg per dose (40 mg/kg divided over 48 hours)) | lesion severity, blinded semi-quantitative analysis of MBP expression ([2]; Example 3, 30 mg/kg topiramate every 12 hours for 48 hours, 96 hours after hypoxia, vs vehicle p<0.01) | effect at the higher dose (MBP injury) ([2]; Example 3, 50 mg/kg per dose (200 mg/kg divided over 48 hours)) | body temperature by rectal probe, treatment vs control groups ([2]; Example 3, P7 rats, monitored at each stage) | dose with maximal protective effect (MBP injury) ([2]; Example 3, partial dose response 10, 30, 50 mg/kg every 12 hours for 48 hours) [mg/kg/dose] | pups with less than 20 ISEL positive cells per section in subcortical white matter ipsilateral to the ligation ([2]; P7 rats, topiramate 30 mg/kg i.p. q12 h 4 doses, 48 hours after hypoxia/ischemia) | white matter cell death (ISEL positive cells) ([2]; P7 rats, topiramate 30 mg/kg i.p. q12 h 4 doses, 48 hours after hypoxia/ischemia, p<0.03) | pups with no appreciable loss of MBP expression ipsilateral to the carotid ligation [2, 3] | pups with severe injury (MBP loss) [2, 3] | loss of MBP expression ipsilateral to the ligation ([2]; P7 rats, topiramate 30 mg/kg i.p. q12 h 4 doses, 96 hours post-ischemia/hypoxia, p=0.04) | white matter injury, semiquantitative lesion severity by MBP expression ([2]; P7 rats, NBQX post-treatment at termination of hypoxia, 96 hours after insult, vs vehicle-treated controls, p<0.001) | white matter injury, semiquantitative lesion severity by O1 expression ([2]; P7 rats, NBQX post-treatment at termination of hypoxia, 96 hours after insult, vs vehicle-treated controls, p<0.005) | treated pups with no detectable injury ([2]; P7 rats, NBQX post-treatment, 96 hours after insult) | rectal temperature, treated vs untreated groups ([2]; P7 rats, NBQX treatment initiated after hypoxia) |
| --- | --- | --- | --- | --- | --- | --- | --- | --- | --- | --- | --- | --- | --- | --- | --- | --- |
| CC1(C)O[C@@H]2[C@@H](CO[C@@]3(COS(N)(=O)=O)OC(C)(C)O[C@@H]23)O1 [topiramate] | fully prevented | partially prevented | less efficacy | significant attenuation of lesion severity | question of possible toxicity | did not differ between treatment and control groups | 30 | Five out of six | significant decreases in white matter cell death | two out of five | None of the topiramate treated pups exhibited severe injury | significant attenuation of MBP loss | – | – | – | – |
| NS(=O)(=O)c1cccc2c1c([N+](=O)[O-])cc1nc(O)c(O)nc12 [NBQX, 2,3-Dioxo-6-nitro-1,2,3,4-tetrahydrobenzo[f]quinoxaline-7-sulphonamide] | fully prevented | completely blocked | – | – | – | – | – | – | – | – | – | – | significant attenuation of white matter injury | significant attenuation of white matter injury | three of seven | No difference in rectal temperatures |
